{"source": "ChEMBL document CHEMBL3885881", "about": "“DrugMatrix”", "key": {"[1]": {"species_on_record": "Rattus norvegicus", "assay_type": "toxicity, organism-based, Sprague-Dawley", "details": "in vivo, po, 1200 mg/kg, 24 h, route oral GAVAGE, dose level High, time 1 day, vehicle .5 % CMC", "description": "DrugMatrix - Regimen: Single"}, "[2]": {"species_on_record": "Rattus norvegicus", "experiment": "DrugMatrix - Regimen: Daily Repeat", "assay_type": "toxicity, organism-based, Sprague-Dawley", "set-up": "regimen Daily Repeat, gender Male, age 6-8 weeks", "details": "in vivo, po, 1200 mg/kg, 72 h, route oral GAVAGE, dose level High, time 3 day, vehicle .5 % CMC"}}}
{"smiles": "Nc1ccc(Cl)cc1[N+](=O)[O-]", "note": "[4-CHLORO-2-NITROANILINE]", "values": [{"measurement": "ABSOLUTE EOSINOPHIL", "setting": "[1]; tissue Blood", "result": 51.67, "unit": "CELLS/uL"}, {"measurement": "ABSOLUTE LYMPHOCYTE", "setting": "[1]; tissue Blood", "result": 11963.33, "unit": "CELLS/uL"}, {"measurement": "ABSOLUTE MONOCYTE", "setting": "[1]; tissue Blood", "result": 476.67, "unit": "CELLS/uL"}, {"measurement": "ABSOLUTE SEGMENTED NEUTROPHIL", "setting": "[1]; tissue Blood", "result": 1508.33, "unit": "CELLS/uL"}, {"measurement": "BASOPHIL", "setting": "[1]; tissue Blood", "result": 0, "unit": "%"}, {"measurement": "EOSINOPHIL", "setting": "[1]; tissue Blood", "result": 0.33, "unit": "%"}, {"measurement": "ERYTHROCYTE COUNT", "setting": "[1]; tissue Blood", "result": 5.85, "unit": "x10E6/uL"}, {"measurement": "HEMATOCRIT", "setting": "[1]; tissue Blood", "result": 35.7, "unit": "%"}, {"measurement": "HEMOGLOBIN", "setting": "[1]; tissue Blood", "result": 12.97, "unit": "G/DL"}, {"measurement": "LEUKOCYTE COUNT", "setting": "[1]; tissue Blood", "result": 14, "unit": "x10E3/uL"}, {"measurement": "LYMPHOCYTE", "setting": "[1]; tissue Blood", "result": 85.67, "unit": "%"}, {"measurement": "MEAN CORPUSCULAR HEMOGLOBIN", "setting": "[1]; tissue Blood", "result": 22.17, "unit": "pg"}, {"measurement": "MEAN CORPUSCULAR HEMOGLOBIN CONCENTRATION", "setting": "[1]; tissue Blood", "result": 36.3, "unit": "G/DL"}, {"measurement": "MEAN CORPUSCULAR VOLUME", "setting": "[1]; tissue Blood", "result": 61.07, "unit": "fL"}, {"measurement": "MONOCYTE", "setting": "[1]; tissue Blood", "result": 3.33, "unit": "%"}, {"measurement": "NEUTROPHIL", "setting": "[1]; tissue Blood", "result": 10.67, "unit": "%"}, {"measurement": "NUCLEATED RED BLOOD CELLS", "setting": "[1]; tissue Blood", "result": "0 /100WBC"}, {"measurement": "PLATELET COUNT", "setting": "[1]; tissue Blood", "result": 1137, "unit": "x10E3/uL"}, {"measurement": "ALANINE AMINOTRANSFERASE", "setting": "[1]; tissue Plasma", "result": 71.67, "unit": "u/L"}, {"measurement": "ALBUMIN", "setting": "[1]; tissue Plasma", "result": 4.2, "unit": "G/DL"}, {"measurement": "ALKALINE PHOSPHATASE", "setting": "[1]; tissue Plasma", "result": 484, "unit": "u/L"}, {"measurement": "ASPARTATE AMINOTRANSFERASE", "setting": "[1]; tissue Plasma", "result": 114, "unit": "u/L"}, {"measurement": "BLOOD UREA NITROGEN", "setting": "[1]; tissue Plasma", "result": 15, "unit": "mg/dL"}, {"measurement": "CARBON DIOXIDE", "setting": "[1]; tissue Plasma", "result": 23.33, "unit": "mmol/L"}, {"measurement": "CHLORIDE", "setting": "[1]; tissue Plasma", "result": 101.33, "unit": "MEQ/L"}, {"measurement": "CHOLESTEROL", "setting": "[1]; tissue Plasma", "result": 86.33, "unit": "mg/dL"}, {"measurement": "CREATININE", "setting": "[1]; tissue Plasma", "result": 0.27, "unit": "mg/dL"}, {"measurement": "GLUCOSE", "setting": "[1]; tissue Plasma", "result": 219, "unit": "mg/dL"}, {"measurement": "LACTATE DEHYDROGENASE", "setting": "[1]; tissue Plasma", "result": 411.33, "unit": "u/L"}, {"measurement": "LIPASE", "setting": "[1]; tissue Plasma", "result": 10, "unit": "u/L"}, {"measurement": "PHOSPHORUS", "setting": "[1]; tissue Plasma", "result": 14.33, "unit": "mg/dL"}, {"measurement": "POTASSIUM", "setting": "[1]; tissue Plasma", "result": 6.09, "unit": "MEQ/L"}, {"measurement": "SODIUM", "setting": "[1]; tissue Plasma", "result": 142.83, "unit": "MEQ/L"}, {"measurement": "TOTAL BILIRUBIN", "setting": "[1]; tissue Plasma", "result": 0.2, "unit": "mg/dL"}, {"measurement": "TOTAL PROTEIN", "setting": "[1]; tissue Plasma", "result": 6.2, "unit": "G/DL"}, {"measurement": "URIC ACID", "setting": "[1]; tissue Plasma", "result": 2.73, "unit": "mg/dL"}, {"measurement": "ABSOLUTE BASOPHIL", "setting": "[2]; tissue Blood", "result": 0, "unit": "CELLS/uL"}, {"measurement": "ABSOLUTE EOSINOPHIL", "setting": "[2]; tissue Blood", "result": 170.33, "unit": "CELLS/uL"}, {"measurement": "ABSOLUTE LYMPHOCYTE", "setting": "[2]; tissue Blood", "result": 8812.67, "unit": "CELLS/uL"}, {"measurement": "ABSOLUTE MONOCYTE", "setting": "[2]; tissue Blood", "result": 210.67, "unit": "CELLS/uL"}, {"measurement": "ABSOLUTE SEGMENTED NEUTROPHIL", "setting": "[2]; tissue Blood", "result": 673, "unit": "CELLS/uL"}, {"measurement": "BASOPHIL", "setting": "[2]; tissue Blood", "result": 0, "unit": "%"}, {"measurement": "EOSINOPHIL", "setting": "[2]; tissue Blood", "result": 1.67, "unit": "%"}, {"measurement": "ERYTHROCYTE COUNT", "setting": "[2]; tissue Blood", "result": 6.64, "unit": "x10E6/uL"}, {"measurement": "HEMATOCRIT", "setting": "[2]; tissue Blood", "result": 39.73, "unit": "%"}, {"measurement": "HEMOGLOBIN", "setting": "[2]; tissue Blood", "result": 14.83, "unit": "G/DL"}, {"measurement": "LEUKOCYTE COUNT", "setting": "[2]; tissue Blood", "result": 9.87, "unit": "x10E3/uL"}, {"measurement": "LYMPHOCYTE", "setting": "[2]; tissue Blood", "result": 89, "unit": "%"}, {"measurement": "MEAN CORPUSCULAR HEMOGLOBIN", "setting": "[2]; tissue Blood", "result": 22.33, "unit": "pg"}, {"measurement": "MEAN CORPUSCULAR HEMOGLOBIN CONCENTRATION", "setting": "[2]; tissue Blood", "result": 37.37, "unit": "G/DL"}, {"measurement": "MEAN CORPUSCULAR VOLUME", "setting": "[2]; tissue Blood", "result": 59.8, "unit": "fL"}, {"measurement": "MONOCYTE", "setting": "[2]; tissue Blood", "result": 2.33, "unit": "%"}, {"measurement": "NEUTROPHIL", "setting": "[2]; tissue Blood", "result": 7, "unit": "%"}, {"measurement": "NUCLEATED RED BLOOD CELLS", "setting": "[2]; tissue Blood", "result": "0.33 /100WBC"}, {"measurement": "PLATELET COUNT", "setting": "[2]; tissue Blood", "result": 873.33, "unit": "x10E3/uL"}, {"measurement": "ALANINE AMINOTRANSFERASE", "setting": "[2]; tissue Plasma", "result": 82.67, "unit": "u/L"}, {"measurement": "ALBUMIN", "setting": "[2]; tissue Plasma", "result": 4.53, "unit": "G/DL"}, {"measurement": "ALKALINE PHOSPHATASE", "setting": "[2]; tissue Plasma", "result": 464.33, "unit": "u/L"}, {"measurement": "ASPARTATE AMINOTRANSFERASE", "setting": "[2]; tissue Plasma", "result": 89.67, "unit": "u/L"}, {"measurement": "BLOOD UREA NITROGEN", "setting": "[2]; tissue Plasma", "result": 17, "unit": "mg/dL"}, {"measurement": "CARBON DIOXIDE", "setting": "[2]; tissue Plasma", "result": 36.67, "unit": "mmol/L"}, {"measurement": "CHLORIDE", "setting": "[2]; tissue Plasma", "result": 100, "unit": "MEQ/L"}, {"measurement": "CHOLESTEROL", "setting": "[2]; tissue Plasma", "result": 91.67, "unit": "mg/dL"}, {"measurement": "CREATININE", "setting": "[2]; tissue Plasma", "result": 0.24, "unit": "mg/dL"}, {"measurement": "GLUCOSE", "setting": "[2]; tissue Plasma", "result": 126.33, "unit": "mg/dL"}, {"measurement": "LACTATE DEHYDROGENASE", "setting": "[2]; tissue Plasma", "result": 78.67, "unit": "u/L"}, {"measurement": "LIPASE", "setting": "[2]; tissue Plasma", "result": 10, "unit": "u/L"}, {"measurement": "PHOSPHORUS", "setting": "[2]; tissue Plasma", "result": 11.83, "unit": "mg/dL"}, {"measurement": "POTASSIUM", "setting": "[2]; tissue Plasma", "result": 6.36, "unit": "MEQ/L"}, {"measurement": "SODIUM", "setting": "[2]; tissue Plasma", "result": 147.57, "unit": "MEQ/L"}, {"measurement": "TOTAL BILIRUBIN", "setting": "[2]; tissue Plasma", "result": 0.23, "unit": "mg/dL"}, {"measurement": "TOTAL PROTEIN", "setting": "[2]; tissue Plasma", "result": 6.73, "unit": "G/DL"}, {"measurement": "URIC ACID", "setting": "[2]; tissue Plasma", "result": 1.37, "unit": "mg/dL"}]}
